The values that follow come from patent US20230210864A1, “AGENT FOR PROMOTING CORNEAL ENDOTHELIAL CELL ADHESION” (Senju Pharmaceutical Co., Ltd., priority 2007, published 2023).

Test [1] has as its system rabbit corneal endothelial cells. Briefly: Culture of rabbit corneal endothelial cells with Y-27632, cells counted by MTS assay. It counts as cell-based. The following applies: primary culture, Y-27632 10 μM. The method, then: From a rabbit corneal tissue isolated immediately after euthanasia, Descemet's membrane with corneal endothelial cells attached thereto was separated. The Descemet's membrane was incubated together with Dispase II (1.2 U/ml, Roche Applied Science) under the conditions of 37° C., 5% CO2 for 45 min, and the corneal endothelial cells were mechanically separated by a pipetting operation. The separated corneal endothelial cells were centrifuged, the cells of a ROCK inhibitor(+) group were stirred in a medium for corneal endothelium added with Y-27632 (10 μM) and the cells of a ROCK inhibitor(−) group were stirred in a medium for corneal endothelium without addition of Y-27632, to the same concentration, and the cells were seeded on a 96 well plate at a density of about 2000 cells per well. As a medium for corneal endothelium, a culture medium (DMEM, Gibco Invitrogen) added with 1% fetal bovine serum and […] bFGF (Gibco Invitrogen) was used. The plate was pre-treated with an FNC coating mix (Athena ES) for 10 min. […] From day 1 to day 3 after the start of the culture, the cells were counted every 24 hr by MTS ([3-(4,5-dimethylthiazol-2-yl)-5-(3-carboxymethoxyphenyl)-2-(4-sulfophenyl)-2H-tetrazolium]) assay using CellTiter 96 (registered trade mark) AQueous One Solution Cell Proliferation (Promega) (FIG. 2).
A general note: Tetrazolium dyes change colour on reduction, which living cells bring about.

Test [2] concerns monkey corneal endothelial cells. Briefly: Cell cycle of monkey corneal endothelial cells (anti-Ki67 antibody immunostaining and flow cytometry). The format is cell-based, Macaca fascicularis. The following applies: Y-27632 10 μM. On the procedure: The Macaca fascicularis corneal endothelial cells passage-cultured in the same manner as in Example 6 were subcultured on a slide glass to a dilution of ¼. A medium for corneal endothelium added with Y-27632 (10 μM) was used for the ROCK inhibitor(+) group and a medium for corneal endothelium without addition of Y-27632 was used for the ROCK inhibitor(−) group. On days 1, 2 and 14 of the passage culture, the corneal endothelial cells on the slide glass were fixed with 4% para-formaldehyde at room temperature for 10 min, and immunostained with anti-Ki67 antibody (FIG. 11). Similarly, moreover, the Macaca fascicularis corneal endothelial cells were passage-cultured to a dilution of ¼ in each of the ROCK inhibitor(+) group and ROCK inhibitor(−) group. On days 1 and 2 of the passage culture, the cells were collected using 0.05% trypsin and subjected to flow cytometry using anti-Ki67 antibody, and the cell cycle was examined (FIGS. 12 and 13).
Background: A flow cytometer gives signals particle by particle.

Test [3] has the same test system. Briefly: Cell morphology in passage culture of monkey corneal endothelial cells (phase contrast, phalloidin fluorescence staining). The format is cell-based, Macaca fascicularis. The following applies: passage culture on slide glass. On the procedure:
The Macaca fascicularis corneal endothelial cells passage-cultured in the same manner as in Example 6 were subcultured on a slide glass to a dilution of ¼. […] Furthermore, the corneal endothelial cells on the slide glass were fixed with 4% para-formaldehyde at room temperature for 10 min, and actin fiber was stained by phalloidin fluorescence staining (FIGS. 10A and 10B).

Test [4] shares this test system. The test can be described thus: Primary culture of monkey corneal endothelial cells, toluidine blue staining, total area of cultured cells (Image J). It counts as cell-based, Macaca fascicularis. The following applies: Y-27632 10 μM, day 10. The method, then:
From the corneal tissue isolated from Macaca fascicularis euthanized, Descemet's membrane with corneal endothelial cells attached thereto was separated. In the same manner as in Example 2, for the ROCK inhibitor(+) group, the Descemet's membrane was placed in a medium for corneal endothelium added with Y-27632 (10 μM) and incubated under the conditions of 37° C., 5% CO2 for 10 min. For the ROCK inhibitor(−) group, the membrane was placed in a medium for corneal endothelium without addition of Y-27632 and incubated for 10 min under the same conditions. As the medium for corneal endothelium, the same cell culture medium as in Example 1 was used. The Descemet's membrane after the incubation was incubated together with Dispase II (1.2 U/ml, Roche Applied Science) under the conditions of 37° C., 5% CO2 for 45 min, and the corneal endothelial cells were mechanically separated by a pipetting operation. The separated corneal endothelial cells were centrifuged and stirred in the media for corneal endothelium with Y-27632(+) and Y-27632(−) to the same concentration, and the cells were seeded on a 96 well plate at a density of about 2000 cells per well. […] The total area of the cells was measured using Image J (National Institutes of Health) and analyzed (FIG. 6C).

Test [5] shares this test system. Briefly: Optimal concentration of Y-27632 for monkey corneal endothelial cells, viable cell count by CellTiter-Glo. It counts as cell-based, Macaca fascicularis. The method, then:
Monkey corneal endothelial cells (primary culture) collected in the same manner as in Example 2 were placed in media for corneal endothelium each added with Y-27632 at 1, 10, 33 and 100 μM and a medium for corneal endothelium without addition of Y-27632, and stirred to the same concentration, and the cells were seeded on a 96 well plate at a density of about 2000 cells per well. At 24 hr from the start of the culture, viable cells were counted using CellTiter-Glo (registered trade mark, Promega) (FIG. 7).

The mark [6] stands for this setting: days 1 and 2 of the passage culture.

The structures appear in SMILES notation.

For the molecule `CC(N)[C@H]1CC[C@H](C(=O)Nc2ccncc2)CC1` (single isomer, unassigned; (+)) [Y-27632, (+)-trans-4-(1-aminoethyl)-1-(4-pyridylcarbamoyl)cyclohexane], the “cell adhesion in 24 hr (day 1) after cell seeding as compared to the ROCK inhibitor(−) group” value in test [1] is “about 2.8 fold”. Also, the “cell growth at day 3 when the cells reached confluent, difference from ROCK inhibitor(−) group” value in test [1] (day 3) is “a significant difference was not found”. For the same molecule, in test [2] (day 14, almost confluent), the “number of Ki67 positive cells by immunostaining, compared to ROCK inhibitor(−) group” value is recorded as “less than that of the ROCK inhibitor(−) group”. In test [2] (setting [6]), the “Ki67 positive cells by flow cytometry, compared to ROCK inhibitor(−) group” value is reported as “contained many Ki67 positive cells” and the “Ki67 positive cells by immunostaining, compared to ROCK inhibitor(−) group” value is reported as “contained many Ki67 positive cells”. Besides, the “actin stress fiber (phalloidin fluorescence staining)” value in test [3] (24 hr) is listed as “actin stress fiber was clearly observed”. The “cell adhesion and morphology at 24 hr after the passage (phase contrast)” value in test [3] (dilution ¼) was “adhesion of the cells onto the slide glass increased, flattening to corneal endothelial cell-like cells was promoted, and aggregation of cells also increased”. For the same molecule, the “total area of cultured cells as compared to the ROCK inhibitor(−)” value in test [4] is recorded as “about 1.6 fold”. The “most effective concentration for monkey corneal endothelial cells” value in test [5] (of 1, 10, 33 and 100 μM, 24 hr) was 10 µM. In addition, the “number of cells that adhered onto the plate at 24 hr, compared to medium without Y-27632 and media with other concentrations” value in test [5] (primary culture, 10 μM Y-27632 (1, 10, 33 and 100 μM tested)) is “significantly high”.
